Literature values, collected in patent publication US20180028591A1, “MALE AND FEMALE INFERTILITY HERBAL COMPOSITION” (priority 2016, published 2018).

Test system: rabbit penile tissue
Conditions: by nitric oxide and PDE5 activity

Q: For COc1ccc(-c2oc3c(CC=C(C)C)c(O[C@@H]4O[C@H](CO)[C@@H](O)[C@H](O)[C@H]4O)cc(O)c3c(=O)c2O[C@@H]2O[C@@H](C)[C@H](O)[C@@H](O)[C@H]2O)cc1 [icariin], which “relaxation of penile tissue” value is on record?
A: The value was “relax rabbit penile tissue”.
